Data as given in patent publication US20220016092A1, “METHODS FOR TREATING SYMPTOMS AND DISORDERS ASSOCIATED WITH LYSOSOMAL STORAGE DISEASES” (GENZYME CORPORATION, priority 2019, published 2022).
Values joined by “and” are separate entries in the source; they are usually repeats but may differ in a detail not shown here. Identical values can stand only once. Like-named read-outs stand apart in the source and are kept apart here.

Columns and labels:
Assay type in all cases: in vivo, human
[1] = Study 2: ascending repeated-dose pharmacokinetics in healthy volunteers; conditions: for AUC(0-t) / Cmax / Tmax / CL renal: both sexes, human, oral; for AUC(0-t) / Cmax / Tmax: plasma; for Tmax: read-out: tmax, median (range); for CL renal: urine and plasma
[2] = test system: adult patients with Gaucher disease Type 3; assay: Clinical study in GD-3 patients: horizontal and vertical saccadic eye movements; conditions: 15 mg/day + imiglucerase
Method: (§1) During the study patients were evaluated for safety and tolerability, CSF and plasma biomarkers (glucosylceramide, GL-1; glucosylsphingosine, lyso-GL1), pharmacokinetics, markers for systemic disease (spleen and liver volume measured by magnetic resonance imaging (MRI), platelet count, hemoglobin levels), indicia of interstitial lung disease (high resolution pulmonary computed tomography (CT)), and horizontal saccadic eye movement.
Quantification of horizontal and vertical saccadic eye movements (HSEM and VSEM, respectively) was performed in all 5 patients. In the five patients, mean peak velocity (PV) of horizontal rightward 15° saccades was 50.8°/s (+/−8.1°/s) at baseline and […] (+/−12.6°/s) at Week 26; and the mean PV of horizontal leftward 15° saccades was 44.7° /s (+/−17.9°/s) at baseline and 32.3°/s (+/−15.9°/s) at Week 26. A slower velocity implies a more significant degree of neurological impairment. The mean PV of horizontal rightward 30° saccades was 77.7°/s (+/−16.4°/s) at baseline and […] (+/−24.7°/s) at Week 26; and the mean PV of horizontal leftward 30° saccades was 58.7°/s (+/−21.5°/s) at baseline and 49.9°/s (+/−8.5°/s) at Week 26. The normal range for […] horizontal saccades has previously been reported as >200°/s and >400°/s (Bremova-Ertl et al, 2018). […] As with HSEM, VSEM measurements were stable between baseline and week 26.
At 52 weeks, quantification of horizontal and vertical saccadic eye movements was performed in all six patients in a similar manner as described in section (A). However, it was determined that the methodology used to account for noise (e.g., caused by blinking or head movements) may have introduced bias into the results. The method of accounting for noise was therefore modified, and a set of control criteria were developed to assess validity of the datasets obtained by the eye movement reader.

[3] = Clinical study in GD-3 patients: Compound 2 concentrations in plasma and CSF; conditions: 15 mg/day + imiglucerase; for AUC(0-t): read-out: AUC0-24 (mean ± SD); for Cmax: read-out: Cmax (mean ± SD)
Source text: Patients 18 years of age or older with a clinical diagnosis of GD3 and documented deficiency of acid beta-glucosidase activity having received treatment with ERT for at least 3 years and with imiglucerase (Cerezyme) at a stable monthly dose for at least 6 months prior to enrollment were included in the study. Patients must have reached the following GD therapeutic goals: hemoglobin level of ≥11.0 g/dL for females and ≥12.0 g/dL for males; platelet count ≥100 000/mm3; spleen volume <10 multiples of normal (MN), or total splenectomy (provided the splenectomy occurred >3 years prior to randomization); liver volume <1.5 MN; and no bone crisis and free of symptomatic bone disease such as bone pain attributable to osteonecrosis and/or pathological fractures within the last year. Patients must have GD3 featuring oculomotor apraxia (supranuclear gaze palsy) characterized by a horizontal saccade abnormality.
as §1
A second interim analysis was performed when the first 6 patients had reached 52-weeks of treatment, as described above in section (A). This analysis included Patients 1-5 as described in section (A), as well as new Patient 6. All six patients had L444P (1448T/C) homozygous Gaucher phenotype.

[4] = test system: glucosylceramide (GL-1) and glucosylsphingosine (lyso-GL1) in CSF and plasma; assay: Clinical study in GD-3 patients: GL-1 and lyso-GL-1 in CSF and plasma; conditions: 15 mg/day + imiglucerase; for GL-1 in CSF, percent change from baseline, Mean (n = 4) / Lyso-GL1 in CSF, percent change from baseline, Mean (n = 4): excludes Patient 5
Method: as §1
At baseline, the mean (±SD) GL-1 concentration in CSF was 7.1±2.8 ng/mL (range 4.4-11.1 ng/mL), while the mean (±SD) lyso-GL-1 concentration in CSF was 39.3±22.9 pg/mL (range 20.1-67.6 pg/mL). For comparison, the healthy GL-1 concentration in CSF is 4.5-5.9 ng/mL, and the healthy level of lyso-GL-1 in CSF is less than 5.0 pg/mL. […]

[5] = human, plasma, oral, plasma, Day 1 (N = 5)
[6] = human, plasma, oral, plasma, Day 1 (N = 6)
[7] = 4 weeks, individual Patients 1-5
[8] = 26 weeks, individual Patients 1-5 (Patient 5 reduced exposure)

## CC(C)(NC(=O)O[C@@H]1CN2CCC1CC2)c1csc(-c2ccc(F)cc2)n1 [Compound 2, (S)-quinuclidin-3-yl 2-(2-(4-fluorophenyl)thiazol-4-yl)propan-2-ylcarbamate]
[1]; 5 mg, healthy adults, 5 mg once daily, Day 1 (N = 9), read-out: AUC0-24, Geometric mean (CV)
  AUC(0-t): 292 ng·h/mL
[1]; 5 mg, healthy adults, 5 mg once daily, Day 1 (N = 9), read-out: AUC0-24, Mean (SD)
  AUC(0-t): 296 ng·h/mL
[1]; 5 mg, healthy adults, 5 mg once daily, Day 1 (N = 9), read-out: Cmax, Geometric mean (CV)
  Cmax: 18.2 ng/mL
[1]; 5 mg, healthy adults, 5 mg once daily, Day 1 (N = 9), read-out: Cmax, Mean (SD)
  Cmax: 18.5 ng/mL
[1]; 5 mg, healthy adults, 5 mg once daily, Day 1 (N = 9)
  Tmax: 5 h
[1]; 5 mg, healthy adults, 5 mg once daily, Day 14 (N = 9), read-out: AUC0-24, Geometric mean (CV)
  AUC(0-t): 632 ng·h/mL
[1]; 5 mg, healthy adults, 5 mg once daily, Day 14 (N = 9), read-out: AUC0-24, Mean (SD)
  AUC(0-t): 642 ng·h/mL
[1]; 5 mg, healthy adults, 5 mg once daily, Day 14 (N = 9), read-out: Cmax, Geometric mean (CV)
  Cmax: 36.5 ng/mL
[1]; 5 mg, healthy adults, 5 mg once daily, Day 14 (N = 9), read-out: Cmax, Mean (SD)
  Cmax: 37 ng/mL
[1]; 5 mg, healthy adults, 5 mg once daily, Day 14 (N = 9)
  Tmax: 3 h
[1]; 10 mg, healthy adults, 10 mg once daily, Day 1 (N = 9), read-out: AUC0-24, Geometric mean (CV)
  AUC(0-t): 623 ng·h/mL
[1]; 10 mg, healthy adults, 10 mg once daily, Day 1 (N = 9), read-out: AUC0-24, Mean (SD)
  AUC(0-t): 635 ng·h/mL
[1]; 10 mg, healthy adults, 10 mg once daily, Day 1 (N = 9), read-out: Cmax, Geometric mean (CV)
  Cmax: 37.8 ng/mL
[1]; 10 mg, healthy adults, 10 mg once daily, Day 1 (N = 9), read-out: Cmax, Mean (SD)
  Cmax: 38.5 ng/mL
[1]; 10 mg, healthy adults, 10 mg once daily, Day 1 (N = 9)
  Tmax: 3 h
[1]; 10 mg, healthy adults, 10 mg once daily, Day 14 (N = 9), read-out: AUC0-24, Geometric mean (CV)
  AUC(0-t): 1490 ng·h/mL
[1]; 10 mg, healthy adults, 10 mg once daily, Day 14 (N = 9), read-out: AUC0-24, Mean (SD)
  AUC(0-t): 1550 ng·h/mL
[1]; 10 mg, healthy adults, 10 mg once daily, Day 14 (N = 9), read-out: Cmax, Geometric mean (CV)
  Cmax: 86 ng/mL
[1]; 10 mg, healthy adults, 10 mg once daily, Day 14 (N = 9), read-out: Cmax, Mean (SD)
  Cmax: 89.7 ng/mL
[1]; 10 mg, healthy adults, 10 mg once daily, Day 14 (N = 9)
  Tmax: 2 h
[1]; 20 mg, healthy adults, 20 mg once daily, Day 1 (N = 9), read-out: AUC0-24, Geometric mean (CV)
  AUC(0-t): 1080 ng·h/mL
[1]; 20 mg, healthy adults, 20 mg once daily, Day 1 (N = 9), read-out: AUC0-24, Mean (SD)
  AUC(0-t): 1100 ng·h/mL
[1]; 20 mg, healthy adults, 20 mg once daily, Day 1 (N = 9), read-out: Cmax, Geometric mean (CV)
  Cmax: 66.5 ng/mL
[1]; 20 mg, healthy adults, 20 mg once daily, Day 1 (N = 9), read-out: Cmax, Mean (SD)
  Cmax: 68 ng/mL
[1]; 20 mg, healthy adults, 20 mg once daily, Day 1 (N = 9)
  Tmax: 3.07 h
[1]; 20 mg, healthy adults, 20 mg once daily, Day 14 (N = 9), read-out: AUC0-24, Geometric mean (CV)
  AUC(0-t): 2340 ng·h/mL
[1]; 20 mg, healthy adults, 20 mg once daily, Day 14 (N = 9), read-out: AUC0-24, Mean (SD)
  AUC(0-t): 2420 ng·h/mL
[1]; 20 mg, healthy adults, 20 mg once daily, Day 14 (N = 9), read-out: Cmax, Geometric mean (CV)
  Cmax: 137 ng/mL
[1]; 20 mg, healthy adults, 20 mg once daily, Day 14 (N = 9), read-out: Cmax, Mean (SD)
  Cmax: 142 ng/mL
[1]; 20 mg, healthy adults, 20 mg once daily, Day 14 (N = 9)
  Tmax: 3 h
[1]; 5 mg, healthy adults, 5 mg once daily, Day 14 (N = 9), read-out: CLR(0-24), Mean (SD) (converted)
  CL renal: 25.8 mL/min
[1]; 10 mg, healthy adults, 10 mg once daily, Day 14 (N = 9), read-out: CLR(0-24), Geometric mean (CV) (converted)
  CL renal: 23.3 mL/min
[1]; 10 mg, healthy adults, 10 mg once daily, Day 14 (N = 9), read-out: CLR(0-24), Mean (SD) (converted)
  CL renal: 24.8 mL/min
[1]; 20 mg, healthy adults, 20 mg once daily, Day 14 (N = 9), read-out: CLR(0-24), Geometric mean (CV) (converted)
  CL renal: 33.3 mL/min
[1]; 20 mg, healthy adults, 20 mg once daily, Day 14 (N = 9), read-out: CLR(0-24), Mean (SD) (converted)
  CL renal: 34.5 mL/min
[1]; healthy adults, 5 mg once daily, Day 14 (N = 9)
  CLss/F, Geometric mean (CV): 5.9 (19.5) L/h
[1]; healthy adults, 10 mg once daily, Day 14 (N = 9)
  CLss/F, Geometric mean (CV): 5.0 (24.4) L/h
[1]; healthy adults, 20 mg once daily, Day 14 (N = 9)
  CLss/F, Geometric mean (CV): 6.4 (25.8) L/h
[1]; healthy adults, 5, 10, or 20 mg once daily for 14 days
  Ctrough values over time: reached a plateau after Day 5
[1]; healthy adults, repeated once-daily doses from 5-20 mg
  Time to steady state: ≤ 5 days
[2]; 26-week treatment period
  Changes in HSEM: no clinically meaningful changes in HSEM
[2]; Week 26, five patients
  Mean peak velocity of horizontal leftward 15° saccades: 32.3 °/s
  Mean peak velocity of horizontal leftward 30° saccades: 49.9 °/s
[2]; between baseline and week 26
  VSEM measurements: stable
[3]
  Crossing of the blood-brain barrier: effectively cross the blood-brain barrier in all patients
  Time at which steady state concentration is reached in plasma and CSF: ≤ 4 Week
[3]; Day 1 (N = 6)
  Concentration in CSF 2-4 hours post dose (mean ± SD): <LLOQ
[3]; Week 4 (N = 5)
  Concentration in CSF 4 hours post dose (mean ± SD): 4.17 ± 0.83 ng/mL
[3]; Week 26 (N = 4)
  Concentration in CSF 4 hours post dose (mean ± SD): 4.71 ± 2.50 ng/mL
[3]; plasma, Day 1 (N = 6)
  tmax (median): 2.00 h
[3]; human, oral, plasma, Day 1 (N = 5), read-out: tmax (median)
  Tmax: 2 h
[3]; [5]
  AUC(0-t): 715 ± 225 ng·h/mL
  Cmax: 48.2 ± 19.2 ng/mL
[3]; [6]
  AUC(0-t): 729 ± 205 ng·h/mL
  Cmax: 49.1 ± 17.3 ng/mL
[4]; 4 weeks
  GL-1 in CSF, percent change from baseline, Mean (n = 4): −64%
  Lyso-GL1 in CSF, percent change from baseline, Mean (n = 4): −32%
[4]; [7]
  GL-1 in CSF, percent change from baseline: −86% and −55% and −53% and −62% and −36%
  Lyso-GL1 in CSF, percent change from baseline: −38% and −16% and −34% and −39% and −11%
[4]; 26 weeks
  GL-1 in CSF, percent change from baseline, Mean (n = 4): −75%
  Lyso-GL1 in CSF, percent change from baseline, Mean (n = 4): −48%
[4]; [8]
  GL-1 in CSF, percent change from baseline: −86% and −78% (2×) and −58% and +4%
  Lyso-GL1 in CSF, percent change from baseline: −52% and −42% and −41% and −57% and +94%
